# Data reported in patent US20040235931A1, “Inhibition of herpes virus replication” (priority 2003, published 2004).
# What was measured:
# [1] = system: Vero cells; assay: MTT toxicity assay in Vero cells; format: cell-based, African green monkey; details: MTT, 24, 48 and 72 hours
# Procedure: (§1) African green monkey kidney cells (Vero) and Human neonatal lung fibroblasts cells (MRC-5) were obtained from the American Type Culture Collection, (Rockville, Md.). Vero cells were grown and maintained in Medium 199 supplemented with 5% fetal bovine serum, 0.075% NaHCO3 and 50 μg/ml gentamycin sulfates. MRC-5 cells were grown and maintained in Minimal Essential Medium with Earle's Balanced Salt Solution containing 2 mM L-glutamine supplemented with 10% fetal bovine serum, 0.lmM nonessential amino acids, 1 mM sodium pyruvate, 2% sodium bicarbonate and 50 μg/ml gentamycin sulfate.
# (§2) Cells were exposed to drug treated media of varying concentrations. […] I3C concentrations used in these studies were 50% and 75% of the CD50. Cells were seeded onto a 96 well at 10,000 cells/well and grown for 24 hours. Twelve different serially diluted concentrations of I3C were then incubated with the cells for 24, 48 and 72 hours and colorimetric readings were taken at these time points using the MTT reagent. Controls included in the 96 well plate were, media alone that contained no cells but with I3C, media with cells but no I3C, and plain media with 0.2% DMSO and no cells or drug. At 24, 48 and 72 hours a sigmoidal curve was generated for each time period and the data analyzed. Approximately, 500 μM was the concentration at which 50 percent of the cells died (CD50).
# [2] = system: MRC-5 cells; assay: MTT toxicity assay in MRC-5 cells; format: cell-based, Human; details: MTT, 24, 48 and 72 hours
# Procedure: as §1, §2
# [3] = system: HSV-1; assay: HSV-1 replication in Vero cells, plaque forming units (pfu) titration; format: cell-based, herpes simplex virus type 1 (HSV-1)
# Procedure: Cultures of African green monkey kidney cells (Vero) cells, obtained from the American Type Culture Collection, Rockville, Md., were grown to confluence in Medium 199 supplemented with 5% fetal bovine serum, 0.075% NaHCO3, and 50 μg/ml gentamycin sulfate in 25 cm^2 tissue culture flasks. Cells were infected with HSV-1 at a multiplicity of infection (moi) of one and incubated at room temperature for one hour to allow for virus attachment to and penetration of the cell. Under these conditions, approximately half of the cells are infected with virus. Thereafter, the cultures were rinsed three time with media and incubated in medium containing 133 μM, 267 μM, or 400 μM I3C prepared in 0.2% dimethyl-sulfoxide (DMSO). Controls were treated identically, but were incubated without the I3C.
# Upon addition of the medium to the cultures and at 24 hours time periods thereafter, i.e., 0 hours, 24 hours, 48 hours, and 72 hours after addition of the drug, cells and medium were frozen at −70° C. Samples were then thawed, sonicated and titrated on Vero cells to determine the number of plaque forming units (pfu's) of virus produced by each culture.
# Vero cell cultures were infected with HSV-1 as described above in Example 1 except that the cells were treated with 267 μM of I3C for 6, 12, or 24 hours prior to infection. Cells were infected with HSV-1 at an moi of 1 for 1 hour. Following removal of the unabsorbed virus, the infected cells were incubated in media containing 0.2% DMSO (control cells) or in media containing 267 μM of I3C (test cells) At 24, 48, and 72 hours after infection, the number of pfu's present in the cells and medium of the I3C -treated cultures was determined.
# [4] = system: acyclovir resistant HSV-1; assay: Acyclovir-resistant HSV-1 replication in Vero cells, pfu determination; format: cell-based, herpes simplex virus type 1 (HSV-1)
# Procedure: Vero cell cultures were infected with acyclovir resistant HSV-1 at an moi of one for one hour. Test cells were treated with 267 μM of I3C immediately after or 24 hours prior to infection. At 24, 48, and 72 hours after infection, the number of pfu's present in the test cell pre-treated with I3C or treated with I3C post infection were determined.
# [5] = system: HSV-2; assay: HSV-2 replication in Vero cells, pfu determination; format: cell-based, herpes simplex virus type 2 (HSV-2); details: 267 μM I3C
# Procedure: Vero cell cultures that had been pretreated with 267 μM of I3C were infected with HSV-2 at an moi of one for 1 hour At 24, 48, and 72 hours after infection, the number of pfu's present in the cells and medium of the I3C pre-treated cultures were determined. In addition, Vero cells were infected with HSV-2 at an moi of one for 1 hour, and thereafter the cultures were rinsed three time with media and incubated in medium containing 267 μM prepared in 0.2% dimethyl-sulfoxide (DMSO). At 24, 48, and 72 hours after infection, the number of pfu's present in the test cell pre-treated with I3C or treated with I3C post infection were determined.
# [6] = system: HSV-1; assay: HSV-1 replication in MRC-5 cells, pfu determination; format: cell-based, herpes simplex virus type 1 (HSV-1); details: 375 μM I3C, pretreatment for 24 or 36 hours prior to infection
# Procedure: MRC-5 cell cultures were infected with HSV-1 as described above in Example 1 except that the cells were treated with 375 μM of I3C following infection or for 12, 24, or 36 hours prior to infection. Cells were infected with HSV-1 at an moi of 1 for 1 hour. Following removal of the unabsorbed virus, the infected cells were incubated in media containing 0.2% DMSO (control cells) or in media containing 375 μM of I3C (test cells) At 24, 48, and 72 hours after infection, the number of pfu's present in the cells and medium of the cultures treated with I3C prior to or after infection was determined.
# [7] = system: HSV; assay: Direct inactivation of HSV by incubation with I3C, plaque assay; details: HSV mixed with I3C solution (267 μM); 1, 10, 30 and 60 minutes; compared to control virus
# Procedure: To determine if I3C could directly inactivate […] studies were done in which HSV was mixed with a solution of I3C (267 μM). Samples were taken at 1, 10, 30 and 60 minutes and the presence of infectious virus determined by the plaque assay.
smiles,measurement,setting,value
"OCc1c[nH]c2ccccc12 [I3C, indole-3-carbinol]",CD50 (concentration at which 50 percent of the cells died),[1],~500 µM
same,CD50 (concentration at which 50 percent of the cells died),[2],~500 µM
same,inhibition of HSV replication,"[3]; 267 μM I3C, Vero cells incubated 12 to 24 hours prior to infection",dramatic and complete
same,HSV replication,"[3]; 267 μM I3C, Vero cells pre-incubated 6 hours prior to infection, 24, 48, 72 hours after infection",proceeded at a reduced rate for 24 hours and then rapidly decreased at 48 and 72 hours to undetectable levels
same,infectious HSV particles in cultures,"[3]; 400 μM I3C continuously post infection, Vero cells, by 72 hours",virtually undetectable
same,inhibition of formation of infectious virus particles,"[3]; 400 μM I3C post infection, Vero cells, moi 1, at 24 hours",more than 99%
same,dose dependence of inhibition of virus replication,"[3]; 133, 267, 400 μM I3C post infection, Vero cells",dose dependent
same,replication of acyclovir-resistant HSV,"[4]; 267 μM I3C post infection, Vero cells, 24, 48, 72 hours after infection",proceeded at a reduced rate for 24 hours and then rapidly decreased at 48 and 72 hours to undetectable levels
same,inhibition of acyclovir-resistant HSV 1 replication,"[4]; 267 μM I3C, Vero cells incubated 24 hours prior to infection",dramatic and complete
same,"HSV-2 replication, first 24 hours",[5]; Vero cells treated 24 hours pre-infection,proceeded at a reduced rate for 24 hours
same,"HSV-2 replication, first 24 hours",[5]; Vero cells treated post infection,proceeded at a reduced rate for 24 hours
same,HSV-2 replication at 48 and 72 hours,[5]; post-treated Vero cells,decreased at 48 and 72 hours
same,HSV-2 replication at 48 and 72 hours,[5]; pre-treated Vero cells,decreased at 48 and 72 hours
same,HSV-1 replication in MRC5 cells,[6],inhibition of HSV-1 replication
same,direct inactivation of HSV,[7],no significant inactivation of HSV
